The target in this assay is T1, IDO1 (Homo sapiens, UniProt P14902).
T1 construct: HeLa cells were treated with a test compound in the presence of IFNγ, which induces IDO1 expression; endogenous in cells; host or cells: H1-HeLa cells (ATCC #CRL-1958), induced with IFNγ
The experiment in a line: Cell-based (HeLa) assay for measurement of IDO1 inhibition (kynurenine levels in supernatant after IFNγ induction). The following applies: H1-HeLa cells, IFNγ-induced IDO1, 48 hour incubation, kynurenine absorbance at 480 nm; geometric mean of a minimum of four determinations. Here is the method: To measure IDO1 inhibition in tissue culture, HeLa cells were treated with a test compound in the presence of IFNγ, which induces IDO1 expression. Following incubation, cell supernatants were assayed for kynurenine levels, an indicator of IDO1 activity.
H1-HeLa cells (ATCC #CRL-1958) were seeded in 384-well plates (Greiner #82051-282) at a volume […] (Corning #15-018-CM) supplemented with 10% FBS (Corning #35-011-CV) and 1% P/S/G (Corning #30-009-CL) at a density of 1,250 cells/well and incubated overnight at 37° C., 5% CO2/100% humidity. The following day, the test compounds were added in DMSO (0.5% final) at various concentrations, and IDO1 was inducibly expressed by the addition of 50 uL/well of 50 ng/mL of INFγ(Peprotech #300-02) in cell plating media. As a positive control, 50 uL of the cell plating media without IFNγ was added to several wells. Following a 48 hour incubation, the plates were spun down at 1,200 RPM for 5 min at 10° C. 65 μL/well of the supernatant was then transferred to new 384-well plates (Thermo #262160) that contained 10 uL/well of 30% TCA (Sigma #T0699), and the plates were sealed and incubated at 60° C. for 30 min. The plates were then centrifuged for 15 min at 2,000 RPM at 10° C. 40 μL/well of the supernatant was transferred to new 384-well plates (Thermo #262160) and was reacted with 40 μL/well of 2% (w/v) p-dimethylaminobenzaldehyde (Sigma #156417) in glacial acetic acid (Sigma #A6283). The reaction was incubated at room temperature for 10 min and absorbance at 480 nm was read using a PerkinElmer Envision plate reader.
Data in Table 1 were normalized based on positive (−IFNγ) and negative (+IFNγ) controls and EC50 values were calculated from the fit of the dose-response curves to a four-parameter equation. All EC50 values represent geometric mean values of a minimum of four determinations. These assays generally produced results within 2-fold of the reported mean.

pEC50: −log10 of the molar value.

What is called pEC50 is −log10 of the EC50, conventionally taken in molar units. Low readings indicate a high EC50, high ones a low EC50.

T1 sequence (P14902 whole entry): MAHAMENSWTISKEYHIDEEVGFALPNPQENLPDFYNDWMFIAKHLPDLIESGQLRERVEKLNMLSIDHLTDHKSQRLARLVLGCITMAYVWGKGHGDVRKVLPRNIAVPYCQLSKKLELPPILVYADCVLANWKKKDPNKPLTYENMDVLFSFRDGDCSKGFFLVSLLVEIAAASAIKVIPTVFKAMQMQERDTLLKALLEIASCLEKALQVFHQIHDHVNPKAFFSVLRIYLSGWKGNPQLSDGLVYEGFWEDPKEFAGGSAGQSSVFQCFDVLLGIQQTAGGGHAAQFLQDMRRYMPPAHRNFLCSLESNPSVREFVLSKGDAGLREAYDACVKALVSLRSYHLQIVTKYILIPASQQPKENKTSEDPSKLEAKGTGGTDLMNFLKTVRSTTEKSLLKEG

`O=C(Nc1ccc(F)cc1)c1cc(-c2cccn3c(-c4cccc(F)c4F)ncc23)ccc1C1CC1` [Example 62, 2-cyclopropyl-5-(3-(2,3-difluorophenyl)imidazo[1,5-a]pyridin-8-yl)-N-(4-fluorophenyl)benzamide] gave a pEC50 of 7.82.

For the compound `Cc1ncc(-c2cccn3c(-c4cccc(F)c4F)ncc23)cc1C(=O)Nc1ccc(F)c(Br)c1` [Example 63, N-(3-bromo-4-fluorophenyl)-5-(3-(2,3-difluorophenyl)imidazo[1,5-a]pyridin-8-yl)-2-methylnicotinamide], the pEC50 was 6.51.

For `Cc1ncc(-c2cccn3c(-c4cccc(F)c4F)ncc23)cc1C(=O)Nc1ccc(Cl)cc1F` [Example 64, N-(4-chloro-2-fluorophenyl)-5-(3-(2,3-difluorophenyl)imidazo[1,5-a]pyridin-8-yl)-2-methylnicotinamide], the pEC50 was 7.61.

As for `Cc1cnc(-c2cccn3c(-c4cccc(F)c4F)ncc23)nc1C(=O)Nc1ccc(F)cc1` [Example 65, 2-(3-(2,3-difluorophenyl)imidazo[1,5-a]pyridin-8-yl)-N-(4-fluorophenyl)-5-methylpyrimidine-4-carboxamide], the pEC50 is 6.40.

Compound `Cc1ncc(-c2cccn3c(-c4cccc(F)c4F)ncc23)cc1C(=O)Nc1ccccc1` [Example 66, 5-(3-(2,3-difluorophenyl)imidazo[1,5-a]pyridin-8-yl)-2-methyl-N-phenylnicotinamide] gave a pEC50 of 7.81.

`Cc1ncc(-c2cccn3c(-c4cccc(F)c4F)ncc23)cc1C(=O)Nc1ccc(OC(F)F)cc1` [Example 67, N-(4-(difluoromethoxy)phenyl)-5-(3-(2,3-difluorophenyl)imidazo[1,5-a]pyridin-8-yl)-2-methylnicotinamide] gave a pEC50 of 7.10.

The compound `Cc1ncc(-c2cccn3c(-c4cccc(F)c4F)ncc23)cc1C(=O)Nc1ccc(F)c(F)c1` [Example 68] showed a pEC50 of 7.00.

Take `Cc1ncc(-c2cccn3c(-c4cccc(F)c4F)ncc23)cc1C(=O)Nc1ccncc1` [Example 69, 5-(3-(2,3-difluorophenyl)imidazo[1,5-a]pyridin-8-yl)-2-methyl-N-(pyridin-4-yl)nicotinamide]: the pEC50 is 7.24.

With `O=C(Nc1ccc(F)cc1)c1cc(-c2cccn3c(-c4cccc(F)c4F)ncc23)ccc1Cl` [Example 70, 2-chloro-5-(3-(2,3-difluorophenyl)imidazo[1,5-a]pyridin-8-yl)-N-(4-fluorophenyl)benzamide], the pEC50 is 7.91.

Take `Cc1cc(NC(=O)c2cc(-c3cccn4c(-c5cccc(F)c5F)ncc34)cnc2C)ccn1` [Example 71, 5-(3-(2,3-difluorophenyl)imidazo[1,5-a]pyridin-8-yl)-2-methyl-N-(2-methylpyridin-4-yl)nicotinamide]: the pEC50 is 6.18.

`Cc1ncc(-c2cccn3c(-c4cccc(F)c4F)ncc23)cc1C(=O)Nc1cccc(OC(F)(F)F)c1` [Example 72, 5-(3-(2,3-difluorophenyl)imidazo[1,5-a]pyridin-8-yl)-2-methyl-N-(3-(trifluoromethoxy)phenyl)nicotinamide] had a pEC50 of 6.42.

The compound `[2H]c1c([2H])c(NC(=O)c2cc(-c3cccn4c(-c5cccc(F)c5F)ncc34)cnc2C)c([2H])c([2H])c1F` [Example 73, 5-(3-(2,3-difluorophenyl)imidazo[1,5-a]pyridin-8-yl)-N-(4-fluorophenyl-2,3,5,6-d4)-2-methylnicotinamide] gave a negative logarithm of the EC50 (pEC50) of 7.62.

As to `Cc1ncc(-c2cccn3c(C4CCCC4)ncc23)cc1C(=O)Nc1ccc(F)cc1` [Example 74, 5-(3-cyclopentylimidazo[1,5-a]pyridin-8-yl)-N-(4-fluorophenyl)-2-methylnicotinamide], the pEC50 was 6.34.

`Cc1ncc(-c2cccn3c(C4CCOCC4)ncc23)cc1C(=O)Nc1ccc(F)cc1` [Example 75, N-(4-fluorophenyl)-2-methyl-5-(3-(tetrahydro-2H-pyran-4-yl)imidazo[1,5-a]pyridin-8-yl)nicotinamide] had a pEC50 of 6.23.

Consider `Cc1ccn2c(-c3cccc(F)c3F)ncc2c1-c1cnc(C)c(C(=O)Nc2ccc(F)cc2)c1` [Example 77, 5-(3-(2,3-difluorophenyl)-7-methylimidazo[1,5-a]pyridin-8-yl)-N-(4-fluorophenyl)-2-methylnicotinamide], for which the pEC50 is 6.14.

Turning to `Cc1cc(-c2cnc(C)c(C(=O)Nc3ccc(F)cc3)c2)c2cnc(-c3cccc(F)c3F)n2c1` [Example 78, 5-(3-(2,3-difluorophenyl)-6-methylimidazo[1,5-a]pyridin-8-yl)-N-(4-fluorophenyl)-2-methylnicotinamide], the pEC50 is 6.05.

`Cc1ncc(-c2cccn3c(-c4cccc(F)c4F)nc(Cl)c23)cc1C(=O)Nc1ccc(F)cc1` [Example 79, 5-(1-chloro-3-(2,3-difluorophenyl)imidazo[1,5-a]pyridin-8-yl)-N-(4-fluorophenyl)-2-methylnicotinamide]: the pEC50 was 6.93.

Consider `Cc1ncc(-c2cccn3c(-c4ccccc4Cl)ncc23)cc1C(=O)Nc1ccc(F)cc1` [Example 80, 5-(3-(2-chlorophenyl)imidazo[1,5-a]pyridin-8-yl)-N-(4-fluorophenyl)-2-methylnicotinamide], for which the pEC50 is 7.71.

Compound `Cc1ncc(-c2cccn3c(-c4cccc(Cl)c4)ncc23)cc1C(=O)Nc1ccc(F)cc1` [Example 81, 5-(3-(3-chlorophenyl)imidazo[1,5-a]pyridin-8-yl)-N-(4-fluorophenyl)-2-methylnicotinamide] had a pEC50 of 6.63.

In turn, `O=C(Nc1ccc(F)cc1)c1cc(-c2cccn3c(-c4cccc(F)c4F)ncc23)cnc1C1CC1` [Example 82, 2-cyclopropyl-5-(3-(2,3-difluorophenyl)imidazo[1,5-a]pyridin-8-yl)-N-(4-fluorophenyl)nicotinamide] had a pEC50 of 7.76.

The compound `O=C(Nc1ccc(F)cc1)c1cccc(-c2cccn3c(-c4cccc(F)c4F)ncc23)n1` [Example 83, 6-(3-(2,3-difluorophenyl)imidazo[1,5-a]pyridin-8-yl)-N-(4-fluorophenyl)picolinamide] had a pEC50 of 6.68.

For the compound `Cc1c(F)cc(-c2cccn3c(-c4cccc(F)c4F)ncc23)cc1C(=O)Nc1ccc(F)cc1` [Example 84], the pEC50 is 7.12.

As to `O=C(Nc1ccc(F)cc1)c1nc(-c2cccn3c(-c4cccc(F)c4F)ncc23)ccc1Cl` [Example 85], the pEC50 is 7.28.

Regarding `Cc1ncc(-c2cccn3c(-c4cccc(Cl)c4Cl)ncc23)cc1C(=O)Nc1ccc(F)cc1` [Example 86, 5-(3-(2,3-dichlorophenyl)imidazo[1,5-a]pyridin-8-yl)-N-(4-fluorophenyl)-2-methylnicotinamide], the pEC50 is 7.51.

`Cc1ncc(-c2cccn3c(-c4cccc(F)c4Cl)ncc23)cc1C(=O)Nc1ccc(F)cc1` [Example 87, 5-(3-(2-chloro-3-fluorophenyl)imidazo[1,5-a]pyridin-8-yl)-N-(4-fluorophenyl)-2-methylnicotinamide] gave a negative-log EC50 (pEC50) of 7.88.

For the compound `Cc1ncc(-c2cccn3c(-c4cccc(Cl)c4F)ncc23)cc1C(=O)Nc1ccc(F)cc1` [Example 88], the pEC50 was 7.31.

On to `Cc1ncc(-c2cccn3c(-c4ccc(F)cc4F)ncc23)cc1C(=O)Nc1ccc(F)cc1` [Example 89, 5-(3-(2,4-difluorophenyl)imidazo[1,5-a]pyridin-8-yl)-N-(4-fluorophenyl)-2-methylnicotinamide], for which the pEC50 is 7.51.

`Cc1ncc(-c2cccn3c(C4CC4)ncc23)cc1C(=O)Nc1ccc(F)cc1` [Example 90, 5-(3-cyclopropylimidazo[1,5-a]pyridin-8-yl)-N-(4-fluorophenyl)-2-methylnicotinamide] had a pEC50 of 5.53.

`Cc1ncc(-c2cccn3c(C4CCC4)ncc23)cc1C(=O)Nc1ccc(F)cc1` [Example 91, 5-(3-cyclobutylimidazo[1,5-a]pyridin-8-yl)-N-(4-fluorophenyl)-2-methylnicotinamide] showed a pEC50 of 6.05.

Compound `Cc1ncc(-c2cccn3c(-c4cccc(F)c4F)nc(Br)c23)cc1C(=O)Nc1ccc(F)cc1` [Example 92, 5-(1-bromo-3-(2,3-difluorophenyl)imidazo[1,5-a]pyridin-8-yl)-N-(4-fluorophenyl)-2-methylnicotinamide] gave a pEC50 of 6.56.

`Cc1ncc(-c2cccn3c(C4CCCCC4)ncc23)cc1C(=O)Nc1ccc(F)cc1` [Example 93, 5-(3-cyclohexylimidazo[1,5-a]pyridin-8-yl)-N-(4-fluorophenyl)-2-methylnicotinamide] showed a pEC50 of 6.60.
